Measured values: ChEMBL document CHEMBL1909046, “DrugMatrix in vitro pharmacology data”

Experiments:
Endothelin-1 receptor = biological target: T1, Endothelin-1 receptor (Homo sapiens, UniProt P25101); format: cell membranes, Membrane; settings: cho-k1; note: in other assays of this panel Not Active means under 50% inhibition at 10 µM
T1 sequence (P25101 whole entry): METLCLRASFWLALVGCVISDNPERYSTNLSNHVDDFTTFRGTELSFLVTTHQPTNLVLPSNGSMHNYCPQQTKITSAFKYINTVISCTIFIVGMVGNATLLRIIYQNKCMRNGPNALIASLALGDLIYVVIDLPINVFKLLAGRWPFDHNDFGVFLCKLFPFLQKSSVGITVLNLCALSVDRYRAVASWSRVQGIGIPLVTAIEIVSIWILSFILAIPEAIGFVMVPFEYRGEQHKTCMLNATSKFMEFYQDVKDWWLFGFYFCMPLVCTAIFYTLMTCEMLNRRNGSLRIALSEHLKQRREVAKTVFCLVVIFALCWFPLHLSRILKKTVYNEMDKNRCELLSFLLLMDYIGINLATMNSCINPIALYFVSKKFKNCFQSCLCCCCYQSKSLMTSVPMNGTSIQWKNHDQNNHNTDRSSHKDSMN

[1] = biological target: T2, 3-hydroxy-3-methylglutaryl-coenzyme A reductase (Homo sapiens, UniProt P04035); design: species or system Escherichia coli;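 note: enzyme inhibition assay of HMG-CoA reductase using radiolabeled [14C]HMG-CoA as substrate; in other assays of this panel Not Active means under 50% inhibition at 10 µM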
T2 sequence (P04035 whole entry): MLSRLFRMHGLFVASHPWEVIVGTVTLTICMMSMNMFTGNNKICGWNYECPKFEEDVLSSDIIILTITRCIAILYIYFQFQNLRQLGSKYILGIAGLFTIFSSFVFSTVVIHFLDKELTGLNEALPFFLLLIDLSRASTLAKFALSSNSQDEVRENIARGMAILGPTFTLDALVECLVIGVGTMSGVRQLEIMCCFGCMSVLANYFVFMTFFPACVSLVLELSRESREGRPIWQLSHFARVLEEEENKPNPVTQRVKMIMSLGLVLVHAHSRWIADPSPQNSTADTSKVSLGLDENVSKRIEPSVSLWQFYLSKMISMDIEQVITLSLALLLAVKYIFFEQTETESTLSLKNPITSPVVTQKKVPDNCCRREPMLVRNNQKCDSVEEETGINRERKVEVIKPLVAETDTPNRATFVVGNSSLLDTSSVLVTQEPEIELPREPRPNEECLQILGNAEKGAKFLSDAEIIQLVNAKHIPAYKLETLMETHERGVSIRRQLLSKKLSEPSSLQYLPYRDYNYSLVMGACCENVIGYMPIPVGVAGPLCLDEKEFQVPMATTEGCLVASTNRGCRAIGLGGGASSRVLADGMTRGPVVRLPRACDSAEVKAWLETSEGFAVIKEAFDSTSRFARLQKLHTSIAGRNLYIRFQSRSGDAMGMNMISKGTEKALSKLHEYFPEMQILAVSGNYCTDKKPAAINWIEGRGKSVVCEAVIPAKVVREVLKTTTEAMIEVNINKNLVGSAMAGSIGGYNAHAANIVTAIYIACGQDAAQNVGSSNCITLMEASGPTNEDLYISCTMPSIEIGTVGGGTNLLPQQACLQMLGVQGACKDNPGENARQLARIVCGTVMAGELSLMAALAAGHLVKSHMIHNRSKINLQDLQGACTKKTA

[2] = DRUGMATRIX: Imidazoline I2, Central radioligand binding (ligand: [3H] Idazoxan); format: cell membranes, Rattus norvegicus, Wistar, Cerebral cortex, Membrane; settings: Not Active = under 50% inhibition at 10 µM
[3] = biological target: T3, Muscarinic acetylcholine receptor M5 (Homo sapiens, UniProt P08912); format: cell membranes, CHO-K1, Membrane; note: in other assays of this panel Not Active means under 50% inhibition at 10 µM
T3 sequence (P08912 whole entry): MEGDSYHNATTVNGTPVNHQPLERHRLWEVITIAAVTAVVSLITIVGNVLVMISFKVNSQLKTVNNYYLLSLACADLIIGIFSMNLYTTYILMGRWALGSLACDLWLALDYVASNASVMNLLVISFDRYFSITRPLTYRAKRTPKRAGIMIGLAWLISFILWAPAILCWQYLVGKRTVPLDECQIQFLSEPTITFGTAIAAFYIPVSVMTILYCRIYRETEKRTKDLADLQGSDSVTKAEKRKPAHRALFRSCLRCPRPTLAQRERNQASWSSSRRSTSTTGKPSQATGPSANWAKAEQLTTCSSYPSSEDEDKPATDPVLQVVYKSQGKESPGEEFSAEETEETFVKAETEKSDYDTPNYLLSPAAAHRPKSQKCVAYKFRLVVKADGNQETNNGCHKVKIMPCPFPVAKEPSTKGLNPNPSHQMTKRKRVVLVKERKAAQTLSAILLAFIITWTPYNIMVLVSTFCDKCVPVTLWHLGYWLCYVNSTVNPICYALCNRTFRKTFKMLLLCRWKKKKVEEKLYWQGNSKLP

[4] = biological target: Delta-type opioid receptor (Homo sapiens, UniProt P41143); format: cell membranes, Membrane; settings: hek293; note: in other assays of this panel Not Active means under 50% inhibition at 10 µM
Acetylcholinesterase = Acetylcholinesterase (Homo sapiens, UniProt P22303); assay: DRUGMATRIX: Acetylcholinesterase enzyme inhibition (substrate: acetylthiocholine); format: cell-based, HEK293; settings: Not Active = under 50% inhibition at 10 µM
Sequence of Acetylcholinesterase (P22303 whole entry): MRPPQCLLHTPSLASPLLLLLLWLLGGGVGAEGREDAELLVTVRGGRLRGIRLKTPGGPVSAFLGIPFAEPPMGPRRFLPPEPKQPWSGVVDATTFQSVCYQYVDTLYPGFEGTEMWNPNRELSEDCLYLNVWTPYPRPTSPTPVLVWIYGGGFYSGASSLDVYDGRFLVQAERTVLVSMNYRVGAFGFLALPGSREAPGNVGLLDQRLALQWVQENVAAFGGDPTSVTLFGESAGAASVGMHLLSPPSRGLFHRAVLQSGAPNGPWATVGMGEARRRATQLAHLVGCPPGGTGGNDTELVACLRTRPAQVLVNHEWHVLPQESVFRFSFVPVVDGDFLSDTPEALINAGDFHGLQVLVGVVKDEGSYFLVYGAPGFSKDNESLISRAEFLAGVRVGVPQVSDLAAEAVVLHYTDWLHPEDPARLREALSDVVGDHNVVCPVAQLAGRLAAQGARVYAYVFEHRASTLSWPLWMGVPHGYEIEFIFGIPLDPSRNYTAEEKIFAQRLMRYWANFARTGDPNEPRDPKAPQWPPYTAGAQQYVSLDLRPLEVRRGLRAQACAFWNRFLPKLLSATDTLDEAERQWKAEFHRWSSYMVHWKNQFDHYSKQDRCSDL

Sequence of Delta-type opioid receptor (P41143 whole entry): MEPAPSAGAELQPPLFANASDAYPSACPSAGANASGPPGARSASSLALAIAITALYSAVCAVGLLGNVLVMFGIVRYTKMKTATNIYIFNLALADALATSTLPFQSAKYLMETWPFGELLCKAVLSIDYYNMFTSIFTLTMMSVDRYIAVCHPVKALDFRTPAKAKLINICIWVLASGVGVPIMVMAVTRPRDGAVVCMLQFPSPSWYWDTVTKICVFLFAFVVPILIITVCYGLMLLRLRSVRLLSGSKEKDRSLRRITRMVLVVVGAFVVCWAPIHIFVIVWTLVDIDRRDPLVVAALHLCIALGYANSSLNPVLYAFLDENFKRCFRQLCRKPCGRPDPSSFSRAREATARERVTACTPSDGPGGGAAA

Row | SMILES | IC50 (Endothelin-1 receptor) | IC50 [1] | IC50 ([2]; read-out: IC50) | Ki ([2]; read-out: Ki) | IC50 ([3]; cho-k1) | IC50 [4] | IC50 (Acetylcholinesterase; hek293) | IC50 [2] | Ki [2] | IC50 (Acetylcholinesterase; read-out: IC50) | IC50 ([3]; read-out: IC50) | Ki ([3]; read-out: Ki)
1 | COc1ccc(CCN(C)CCCC(C#N)(c2ccc(OC)c(OC)c2)C(C)C)cc1OC (stereo not given) | Not Active | Not Active | 5520 nM | 3680 nM | Not Active | Not Active | Not Active |  |  |  |  | 
2 | CC(C)Cc1ccc([C@@H](C)C(=O)O)cc1 [(R)-IBUPROPHEN] | Not Active | Not Active |  |  | Not Active | Not Active | Not Active | Not Active | Not Active |  |  | 
3 | Clc1ccc(COC(Cn2ccnc2)c2ccc(Cl)cc2Cl)cc1 (stereo not given) [ECONAZOLE] | Not Active | Not Active |  |  | Not Active |  |  |  |  | 13700 nM |  | 
4 | Fc1ccc(C(c2ccc(F)cc2)N2CCN(C/C=C/c3ccccc3)CC2)cc1 [FLUNARIZINE] | Not Active | Not Active |  |  |  | Not Active | Not Active |  |  |  |  | 
5 | CNCCC(Oc1ccc(C(F)(F)F)cc1)c1ccccc1 (stereo not given) [FLUOXETINE] | Not Active | Not Active |  |  |  | Not Active | Not Active |  |  |  |  | 
6 | CC(C)Oc1ccc2c(=O)c(-c3ccccc3)coc2c1 [IPRIFLAVONE] | Not Active | Not Active |  |  | Not Active | Not Active | Not Active | Not Active | Not Active |  |  | 
7 | CC(C)NCC(O)c1ccc(O)c(O)c1 (stereo not given) [ISOPROTERENOL] | Not Active | Not Active |  |  | Not Active | Not Active | Not Active | Not Active | Not Active |  |  | 
8 | CNC1(c2ccccc2Cl)CCCCC1=O (stereo not given) [KETAMINE] | Not Active | Not Active |  |  | Not Active | Not Active | Not Active | Not Active | Not Active |  |  | 
9 | CO[C@@H]1[C@@H](OC)[C@H](C)[C@@](O)(CC(=O)O)O[C@H]1[C@H](C)[C@H]1O[C@@]2(CC[C@@](C)([C@H]3CC[C@@](C)([C@@H]4O[C@@H]([C@H]5O[C@](C)(O)[C@H](C)C[C@@H]5C)C[C@@H]4O[C@@H]4C[C@H](OC)[C@@H](OC)[C@H](C)O4)O3)O2)C[C@H](O)[C@H]1C [MADURAMICIN ACID] | Not Active | Not Active | 607 nM | 405 nM | Not Active | Not Active | Not Active |  |  |  |  | 
10 | C[C@H]1C[C@@H]2[C@H]([C@@H](O)C[C@@]3(C)[C@H]2CC[C@]3(O)C(=O)CO)[C@@]2(C)C=CC(=O)C=C12 [METHYLPREDNISOLONE] | Not Active | Not Active |  |  | Not Active | Not Active | Not Active | Not Active | Not Active |  |  | 
11 | Cc1cccc(C)c1OCC(C)N (stereo not given) [MEXILETINE] | Not Active | Not Active |  |  | Not Active | Not Active | Not Active | Not Active | Not Active |  |  | 
12 | CO[C@H]1/C=C/O[C@@]2(C)Oc3c(C)c(O)c4c(O)c(c(/C=N/N5CCN(C6CCCC6)CC5)c(O)c4c3C2=O)NC(=O)/C(C)=C\C=C\[C@H](C)[C@H](O)[C@@H](C)[C@@H](O)[C@@H](C)[C@H](OC(C)=O)[C@@H]1C [RIFAPENTINE] | Not Active | Not Active |  |  | Not Active | Not Active | Not Active | Not Active | Not Active |  |  | 
13 | CC[C@@H](C(=O)[C@@H](C)[C@@H](O)[C@H](C)[C@@H]1O[C@@H]([C@@H](CC)C(=O)O)CC[C@@H]1C)[C@H]1O[C@]2(C=C[C@@H](O)[C@]3(CC[C@@](C)([C@H]4CC[C@](O)(CC)[C@H](C)O4)O3)O2)[C@H](C)C[C@@H]1C [SALINOMYCIN] | Not Active | Not Active |  |  | Not Active | Not Active | Not Active | Not Active | Not Active |  |  | 
14 | O=C(Oc1ccccc1C(=O)O)c1ccccc1O [SALSALATE] | Not Active | Not Active |  |  | Not Active | Not Active | Not Active | Not Active | Not Active |  |  | 
15 | O=C(O)c1cn(-c2ccc(F)cc2)c2cc(N3CCNCC3)c(F)cc2c1=O [SARAFLOXACIN] | Not Active | Not Active |  |  | Not Active | Not Active | Not Active | Not Active | Not Active |  |  | 
16 | CN[C@H]1CC[C@@H](c2ccc(Cl)c(Cl)c2)c2ccccc21 [SERTRALINE] | Not Active | Not Active |  |  |  | Not Active | Not Active |  |  |  | 507 nM | 365 nM
17 | CC(C)NCC(O)c1ccc(NS(C)(=O)=O)cc1 (stereo not given) [SOTALOL] | Not Active | Not Active |  |  | Not Active | Not Active | Not Active | Not Active | Not Active |  |  | 
18 | O.O.O.O.O.O.[Cl-].[Cl-].[Sr+2] [STRONTIUM CHLORIDE HEXAHYDRATE] | Not Active | Not Active |  |  | Not Active | Not Active | Not Active | Not Active | Not Active |  |  | 
19 | O=C1C(CC[S+]([O-])c2ccccc2)C(=O)N(c2ccccc2)N1c1ccccc1 (stereo not given) [SULFINPYRAZONE] | Not Active | Not Active |  |  | Not Active | Not Active | Not Active | Not Active | Not Active |  |  | 
20 | COc1cc2nc(N3CCN(C(=O)C4CCCO4)CC3)nc(N)c2cc1OC (stereo not given) [TERAZOSIN] | Not Active | Not Active | 1270 nM | 846 nM | Not Active | Not Active | Not Active |  |  |  |  | 
21 | CN(C/C=C/C#CC(C)(C)C)Cc1cccc2ccccc12 [TERBINAFINE] | Not Active | Not Active |  |  | Not Active | Not Active | Not Active | Not Active | Not Active |  |  | 
22 | CCCCNc1ccc(C(=O)OCCN(C)C)cc1 [TETRACAINE] | Not Active | Not Active |  |  | Not Active | Not Active | Not Active | Not Active | Not Active |  |  | 
23 | Cn1c(=O)c2nc[nH]c2n(C)c1=O.O [THEOPHYLLINE] | Not Active | Not Active |  |  | Not Active | Not Active | Not Active | Not Active | Not Active |  |  | 
24 | CS(=O)(=O)c1ccc([C@@H](O)[C@@H](CO)NC(=O)C(Cl)Cl)cc1 [THIAMPHENICOL] | Not Active | Not Active |  |  | Not Active | Not Active | Not Active | Not Active | Not Active |  |  | 
25 | CCN(CC)CCNC(=O)c1cc(S(C)(=O)=O)ccc1OC [TIAPRIDE] | Not Active | Not Active |  |  | Not Active | Not Active | Not Active | Not Active | Not Active |  |  | 
